Test results: US9587171B2, “Ammonium salts of chelating agents and their use in oil and gas field applications” (AKZO NOBEL CHEMICALS INTERNATIONAL B.V., priority 2010, dated 2017)

Assay: Descaling efficiency for iron sulfide (FeS) at pH 3.8 as a function of temperature
Assay type: physicochemical
Conditions: 20° C., 24 hours, FIG. 4
Protocol: The Parr bomb was placed in an oven at 90° C. The beaker glass was closed with parafilm. After 24 hours at temperature the samples were filtered by a 0.45 micron filter prior to ICP-ES analysis. The descaling efficiency was calculated from the iron concentration in the liquid and the initial amount of FeS.

descaling efficiency for FeS at low temperature: dissolved more FeS at low temperature
Structure (SMILES): O=C([O-])CC[C@@H](C(=O)[O-])N(CC(=O)[O-])CC(=O)[O-].[Na+].[Na+].[Na+].[Na+] [sodium GLDA]
